Measurements reported in ChEMBL document CHEMBL4627384, “l-Thyroxin and the Nonclassical Thyroid Hormone TETRAC Are Potent Activators of PPARγ” (J Med Chem, 2020).
Active and inactive are the calls of the source. The calls are words filed in the database; no cut-off is given here.

How the values were obtained:
[1] = molecular target: T1, Retinoic acid receptor RXR-alpha (Homo sapiens) (UniProt P19793); assay: Agonist activity at recombinant human pFA-CMV fused RXRalpha LBD expressed in HEK293T cells transfected with pFR-luciferase plasmid and pRL-SV40 plasmid incubated for 14 to 16 hrs by dual glo luciferase reporter gene assay relative to control; format: cell-based; conditions: HEK-293T
T1 sequence (whole entry): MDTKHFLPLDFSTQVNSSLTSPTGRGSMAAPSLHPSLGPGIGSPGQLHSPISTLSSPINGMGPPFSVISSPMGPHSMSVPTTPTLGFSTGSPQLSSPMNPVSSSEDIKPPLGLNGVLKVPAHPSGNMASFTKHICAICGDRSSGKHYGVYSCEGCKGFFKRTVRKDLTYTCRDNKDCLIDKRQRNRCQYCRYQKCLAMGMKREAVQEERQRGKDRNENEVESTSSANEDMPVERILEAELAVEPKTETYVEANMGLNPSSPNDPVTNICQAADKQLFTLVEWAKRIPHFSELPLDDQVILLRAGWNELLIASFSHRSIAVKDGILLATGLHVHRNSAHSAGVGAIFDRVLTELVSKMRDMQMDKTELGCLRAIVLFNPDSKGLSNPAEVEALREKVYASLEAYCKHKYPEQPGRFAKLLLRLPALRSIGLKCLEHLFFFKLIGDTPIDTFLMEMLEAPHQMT

[2] = molecular target: T1, Retinoic acid receptor RXR-alpha (Homo sapiens); assay: Agonist activity at recombinant human pFA-CMV fused RXRalpha LBD expressed in HEK293T cells transfected with pFR-luciferase plasmid and pRL-SV40 plasmid at 10 uM incubated for 14 to 16 hrs by dual glo luciferase reporter gene assay; format: cell-based; conditions: HEK-293T
[3] = molecular target: T2, Retinoic acid receptor RXR-alpha (Homo sapiens, UniProt P19793); assay: Agonist activity at recombinant human pFA-CMV fused RXRalpha LBD expressed in HEK293T cells transfected with pFR-luciferase plasmid and pRL-SV40 plasmid incubated for 14 to 16 hrs by dual glo luciferase reporter gene assay; format: cell-based, HEK-293T; conditions: read-out: EC50
T2 sequence (P19793 whole entry): T1 sequence (whole entry)

[4] = molecular target: T3, Peroxisome proliferator-activated receptor gamma (Homo sapiens) (UniProt P37231); assay: Agonist activity at PPARgamma in human HepG2 cells with THRB knockdown assessed as induction of CD36 mRNA expression incubated for 8 hrs by qPCR analysis; format: cell-based
T3 sequence (whole entry): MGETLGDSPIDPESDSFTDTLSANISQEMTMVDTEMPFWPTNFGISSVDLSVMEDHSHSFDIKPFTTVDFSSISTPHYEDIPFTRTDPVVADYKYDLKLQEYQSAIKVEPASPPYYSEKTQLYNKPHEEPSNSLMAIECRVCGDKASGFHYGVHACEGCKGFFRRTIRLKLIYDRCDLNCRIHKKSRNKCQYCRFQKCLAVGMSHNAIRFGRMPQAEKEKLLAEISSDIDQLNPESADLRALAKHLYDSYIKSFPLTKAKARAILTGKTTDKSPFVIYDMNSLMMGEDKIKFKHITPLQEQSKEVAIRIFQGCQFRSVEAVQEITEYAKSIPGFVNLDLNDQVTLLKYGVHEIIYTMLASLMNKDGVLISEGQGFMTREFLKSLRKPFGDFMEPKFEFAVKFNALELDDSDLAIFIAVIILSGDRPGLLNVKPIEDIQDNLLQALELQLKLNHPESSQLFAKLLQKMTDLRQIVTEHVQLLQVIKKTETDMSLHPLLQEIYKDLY

[5] = molecular target: T3, Peroxisome proliferator-activated receptor gamma (Homo sapiens); assay: Agonist activity at PPARgamma in human HepG2 cells with THRA knockdown assessed as induction of CD36 mRNA expression incubated for 8 hrs by qPCR analysis; format: cell-based
[6] = molecular target: T4, Peroxisome proliferator-activated receptor gamma (Homo sapiens, UniProt P37231); assay: Agonist activity at recombinant human pFA-CMV fused PPARgamma expressed in HEK293T cells transfected with pFR-luciferase plasmid and pRL-SV40 plasmid incubated for 14 to 16 hrs by dual glo luciferase reporter gene assay; format: cell-based, HEK-293T
T4 sequence (P37231 whole entry): T3 sequence (whole entry)

[7] = molecular target: T4, Peroxisome proliferator-activated receptor gamma; assay: Binding affinity to recombinant PPARgamma LBD (unknown origin) by isothermal titration calorimetry
[8] = molecular target: T5, Retinoic acid receptor RXR-beta (Homo sapiens) (UniProt P28702); assay: Agonist activity at recombinant human pFA-CMV fused RXRbeta LBD expressed in HEK293T cells transfected with pFR-luciferase plasmid and pRL-SV40 plasmid at 10 uM incubated for 14 to 16 hrs by dual glo luciferase reporter gene assay; format: cell-based; conditions: HEK-293T
T5 sequence (whole entry): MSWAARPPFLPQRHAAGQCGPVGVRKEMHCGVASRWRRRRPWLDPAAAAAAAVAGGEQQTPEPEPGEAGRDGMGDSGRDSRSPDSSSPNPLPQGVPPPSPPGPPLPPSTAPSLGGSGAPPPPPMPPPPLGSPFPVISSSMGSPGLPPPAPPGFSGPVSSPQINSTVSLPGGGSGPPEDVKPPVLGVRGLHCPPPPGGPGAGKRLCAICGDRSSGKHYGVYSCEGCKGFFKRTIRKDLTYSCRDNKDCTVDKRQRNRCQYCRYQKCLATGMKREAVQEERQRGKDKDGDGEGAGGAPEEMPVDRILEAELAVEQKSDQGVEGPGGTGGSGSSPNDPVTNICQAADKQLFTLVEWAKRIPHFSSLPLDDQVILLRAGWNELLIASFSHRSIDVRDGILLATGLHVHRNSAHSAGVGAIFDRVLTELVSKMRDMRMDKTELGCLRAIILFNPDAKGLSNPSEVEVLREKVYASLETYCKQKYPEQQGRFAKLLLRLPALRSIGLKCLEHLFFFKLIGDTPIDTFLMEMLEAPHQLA

[9] = molecular target: T2, Retinoic acid receptor RXR-alpha; assay: Binding affinity to RXRalpha LBD (unknown origin) by isothermal titration calorimetry
[10] = molecular target: T6, Retinoic acid receptor RXR-gamma (Homo sapiens) (UniProt P48443); assay: Agonist activity at recombinant human pFA-CMV fused RXRgamma LBD expressed in HEK293T cells transfected with pFR-luciferase plasmid and pRL-SV40 plasmid at 10 uM incubated for 14 to 16 hrs by dual glo luciferase reporter gene assay; format: cell-based; conditions: HEK-293T
T6 sequence (whole entry): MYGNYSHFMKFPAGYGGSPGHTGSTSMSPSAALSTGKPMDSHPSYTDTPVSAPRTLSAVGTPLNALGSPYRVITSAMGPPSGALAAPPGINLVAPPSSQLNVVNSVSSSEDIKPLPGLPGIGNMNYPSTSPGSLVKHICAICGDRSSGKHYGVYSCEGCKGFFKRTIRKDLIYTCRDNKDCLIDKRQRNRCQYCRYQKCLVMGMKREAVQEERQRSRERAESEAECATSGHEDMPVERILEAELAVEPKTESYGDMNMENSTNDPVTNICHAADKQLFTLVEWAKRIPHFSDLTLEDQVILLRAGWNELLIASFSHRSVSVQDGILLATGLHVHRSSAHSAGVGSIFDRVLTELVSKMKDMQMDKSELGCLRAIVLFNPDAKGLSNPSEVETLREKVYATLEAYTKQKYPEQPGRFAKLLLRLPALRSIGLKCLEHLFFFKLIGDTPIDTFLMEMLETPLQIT

Row | SMILES | fold change (FC) [1] | Activity [2] | EC50 [3] | Activity [4] | Activity [5] | EC50 [6] | Kd [7] | Activity [8] | Kd [9] | Activity [10]
1 | N[C@@H](Cc1cc(I)c(Oc2cc(I)c(O)c(I)c2)c(I)c1)C(=O)O [LEVOTHYROXINE] | 7.4 | Active | 15400 nM | Dose-dependent effect | Dose-dependent effect | 12000 nM | 400 nM | Active | 930 nM | Active
2 | O=C(O)Cc1cc(I)c(Oc2cc(I)c(O)c(I)c2)c(I)c1 [TETRAC] | 9.1 | Active | 1320 nM | Dose-dependent effect | Dose-dependent effect | 100 nM | 110 nM | Active | 1500 nM | Active
